Test results: ChEMBL document CHEMBL5058541, “EUbOPEN Chemogenomics Library 2 (NanoBRET)” (2022)
pIC50: −log10 of the molar value.

Key:
[1] = molecular target: Fibroblast growth factor receptor 3 (Homo sapiens) (UniProt P22607); conditions: Compound concentration 20.0 uM, Protein concentration 2.0 uM, Result type QC Liability
Description: Thermal Shift Assay. Domain: start/stop: P449-E759

[2] = molecular target: Epithelial discoidin domain-containing receptor 1 (Homo sapiens) (UniProt Q08345); assay: Cellular target engagement assay with: DDR1; parameters: cell line HEK293T; conditions: HEK-293T, NanoBRET Ttracer Tracer K4
[3] = molecular target: Mitogen-activated protein kinase 11 (Homo sapiens) (UniProt Q15759); assay: Cellular target engagement assay with: MAPK11; parameters: cell line HEK293T; conditions: HEK-293T, NanoBRET Ttracer Tracer K10
[4] = molecular target: Mitogen-activated protein kinase 14 (Homo sapiens) (UniProt Q16539); assay: Cellular target engagement assay with: MAPK14; parameters: cell line HEK293T; conditions: HEK-293T, NanoBRET Ttracer Tracer K10
Peregrin (Homo sapiens) [5] = molecular target: T1, Peregrin (Homo sapiens) (UniProt P55201); conditions: Compound concentration 20.0 uM, Protein concentration 2.0 uM, Result type QC Liability
T1 sequence (whole entry): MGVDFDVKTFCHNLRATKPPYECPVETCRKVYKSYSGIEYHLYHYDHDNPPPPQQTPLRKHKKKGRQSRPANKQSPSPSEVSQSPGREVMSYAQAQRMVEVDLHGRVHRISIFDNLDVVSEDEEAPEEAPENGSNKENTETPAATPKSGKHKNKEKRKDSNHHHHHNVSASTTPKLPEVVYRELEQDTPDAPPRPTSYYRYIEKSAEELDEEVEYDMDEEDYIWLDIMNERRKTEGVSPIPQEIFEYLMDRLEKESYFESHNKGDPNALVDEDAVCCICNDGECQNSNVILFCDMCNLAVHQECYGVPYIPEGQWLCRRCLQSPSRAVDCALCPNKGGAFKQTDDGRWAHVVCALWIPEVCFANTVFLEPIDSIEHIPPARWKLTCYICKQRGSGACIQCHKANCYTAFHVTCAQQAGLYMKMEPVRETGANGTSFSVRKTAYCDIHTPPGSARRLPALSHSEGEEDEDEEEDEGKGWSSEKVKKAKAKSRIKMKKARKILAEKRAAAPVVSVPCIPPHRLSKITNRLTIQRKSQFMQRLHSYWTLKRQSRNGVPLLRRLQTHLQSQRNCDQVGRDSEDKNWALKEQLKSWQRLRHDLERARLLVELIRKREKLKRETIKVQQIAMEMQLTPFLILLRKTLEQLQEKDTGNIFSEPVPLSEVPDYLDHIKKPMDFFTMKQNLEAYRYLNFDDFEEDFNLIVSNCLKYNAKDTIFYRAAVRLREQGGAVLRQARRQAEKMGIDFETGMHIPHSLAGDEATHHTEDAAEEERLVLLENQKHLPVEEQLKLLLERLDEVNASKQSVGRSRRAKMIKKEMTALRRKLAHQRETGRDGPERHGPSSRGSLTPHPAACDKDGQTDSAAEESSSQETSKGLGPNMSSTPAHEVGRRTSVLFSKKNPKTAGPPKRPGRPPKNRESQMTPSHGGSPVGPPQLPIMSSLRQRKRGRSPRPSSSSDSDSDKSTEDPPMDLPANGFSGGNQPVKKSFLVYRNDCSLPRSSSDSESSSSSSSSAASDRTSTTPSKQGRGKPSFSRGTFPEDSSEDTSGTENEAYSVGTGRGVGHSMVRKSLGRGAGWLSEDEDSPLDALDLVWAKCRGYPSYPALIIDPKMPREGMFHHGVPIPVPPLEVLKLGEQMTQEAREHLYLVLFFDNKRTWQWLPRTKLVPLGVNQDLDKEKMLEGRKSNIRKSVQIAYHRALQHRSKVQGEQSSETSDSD

[6] = molecular target: T2, Discoidin domain-containing receptor 2 (Homo sapiens) (UniProt Q16832); assay: Cellular target engagement assay with: DDR2; parameters: cell line HEK293T; conditions: HEK-293T, NanoBRET Ttracer Tracer K4
T2 sequence (whole entry): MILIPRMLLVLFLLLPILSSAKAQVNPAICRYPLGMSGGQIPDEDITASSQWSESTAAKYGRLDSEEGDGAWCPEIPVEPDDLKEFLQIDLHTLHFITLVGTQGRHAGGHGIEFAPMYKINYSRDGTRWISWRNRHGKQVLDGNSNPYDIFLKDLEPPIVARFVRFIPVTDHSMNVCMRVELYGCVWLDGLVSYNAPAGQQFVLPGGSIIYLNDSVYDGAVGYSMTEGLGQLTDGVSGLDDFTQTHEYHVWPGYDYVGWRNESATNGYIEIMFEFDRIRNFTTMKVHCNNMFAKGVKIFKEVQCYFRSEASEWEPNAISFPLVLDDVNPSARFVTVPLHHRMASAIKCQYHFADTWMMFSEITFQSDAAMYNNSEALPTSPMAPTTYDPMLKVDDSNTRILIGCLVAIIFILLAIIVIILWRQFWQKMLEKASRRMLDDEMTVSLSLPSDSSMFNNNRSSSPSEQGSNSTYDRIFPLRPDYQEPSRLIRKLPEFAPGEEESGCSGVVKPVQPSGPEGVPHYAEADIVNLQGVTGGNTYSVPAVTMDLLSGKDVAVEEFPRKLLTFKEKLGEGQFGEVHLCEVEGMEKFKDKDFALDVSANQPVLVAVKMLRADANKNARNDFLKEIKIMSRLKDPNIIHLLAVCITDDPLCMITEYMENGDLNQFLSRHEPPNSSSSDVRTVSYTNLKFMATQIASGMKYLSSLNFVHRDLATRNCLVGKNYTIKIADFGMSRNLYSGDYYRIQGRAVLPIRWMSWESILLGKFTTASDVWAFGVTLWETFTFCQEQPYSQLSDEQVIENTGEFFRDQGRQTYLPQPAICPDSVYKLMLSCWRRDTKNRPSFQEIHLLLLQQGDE

[7] = molecular target: T3, Peripheral plasma membrane protein CASK (Homo sapiens, UniProt O14936); assay: (§1) Cellular target engagement assay with: CASK; parameters: species or system HEK-293T; cell line HEK293T
T3 sequence (O14936 whole entry): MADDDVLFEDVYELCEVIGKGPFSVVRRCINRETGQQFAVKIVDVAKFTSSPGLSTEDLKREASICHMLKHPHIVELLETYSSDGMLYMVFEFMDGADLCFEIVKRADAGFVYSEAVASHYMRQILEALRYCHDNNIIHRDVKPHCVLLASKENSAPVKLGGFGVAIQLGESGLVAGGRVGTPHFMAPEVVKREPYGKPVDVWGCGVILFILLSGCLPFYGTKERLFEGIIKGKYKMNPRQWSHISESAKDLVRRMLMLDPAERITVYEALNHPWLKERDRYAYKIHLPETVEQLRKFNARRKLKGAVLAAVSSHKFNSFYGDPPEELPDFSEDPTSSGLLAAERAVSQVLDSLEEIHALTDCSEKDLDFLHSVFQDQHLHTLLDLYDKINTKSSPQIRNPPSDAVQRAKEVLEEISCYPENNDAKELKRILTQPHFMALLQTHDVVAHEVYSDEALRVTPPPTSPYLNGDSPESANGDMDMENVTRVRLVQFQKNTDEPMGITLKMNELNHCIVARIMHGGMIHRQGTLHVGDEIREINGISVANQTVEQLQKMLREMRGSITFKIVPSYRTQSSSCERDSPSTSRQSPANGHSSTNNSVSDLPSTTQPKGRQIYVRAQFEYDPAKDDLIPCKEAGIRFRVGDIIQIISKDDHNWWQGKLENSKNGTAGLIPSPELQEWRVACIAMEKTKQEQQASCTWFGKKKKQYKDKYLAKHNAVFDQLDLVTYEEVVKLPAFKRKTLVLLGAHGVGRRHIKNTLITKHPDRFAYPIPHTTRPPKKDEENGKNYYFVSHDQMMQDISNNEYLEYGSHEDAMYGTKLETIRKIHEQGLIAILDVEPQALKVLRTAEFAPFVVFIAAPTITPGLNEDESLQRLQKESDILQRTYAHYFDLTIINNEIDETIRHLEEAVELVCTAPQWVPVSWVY

[8] = molecular target: T4, Peripheral plasma membrane protein CASK (Homo sapiens) (UniProt O14936); assay: as §1; parameters: cell line HEK293T; conditions: HEK-293T, NanoBRET Ttracer Tracer K5
T4 sequence (whole entry): T3 sequence (O14936 whole entry)

[9] = molecular target: SRSF protein kinase 1 (Homo sapiens) (UniProt Q96SB4); conditions: HEK-293T, NanoBRET Ttracer MW375
Description: Cellular target engagement assay with: SRPK1

Peregrin (Homo sapiens) [10] = molecular target: T1, Peregrin (Homo sapiens); conditions: Compound concentration 20.0 uM, Protein concentration 2.0 uM, Result type QC Liability; remark: listed apart in the source
[11] = molecular target: SRSF protein kinase 2 (Homo sapiens) (UniProt P78362); conditions: HEK-293T, NanoBRET Ttracer MW375
Sequence of SRSF protein kinase 2 (Homo sapiens) (P78362 whole entry, looked up): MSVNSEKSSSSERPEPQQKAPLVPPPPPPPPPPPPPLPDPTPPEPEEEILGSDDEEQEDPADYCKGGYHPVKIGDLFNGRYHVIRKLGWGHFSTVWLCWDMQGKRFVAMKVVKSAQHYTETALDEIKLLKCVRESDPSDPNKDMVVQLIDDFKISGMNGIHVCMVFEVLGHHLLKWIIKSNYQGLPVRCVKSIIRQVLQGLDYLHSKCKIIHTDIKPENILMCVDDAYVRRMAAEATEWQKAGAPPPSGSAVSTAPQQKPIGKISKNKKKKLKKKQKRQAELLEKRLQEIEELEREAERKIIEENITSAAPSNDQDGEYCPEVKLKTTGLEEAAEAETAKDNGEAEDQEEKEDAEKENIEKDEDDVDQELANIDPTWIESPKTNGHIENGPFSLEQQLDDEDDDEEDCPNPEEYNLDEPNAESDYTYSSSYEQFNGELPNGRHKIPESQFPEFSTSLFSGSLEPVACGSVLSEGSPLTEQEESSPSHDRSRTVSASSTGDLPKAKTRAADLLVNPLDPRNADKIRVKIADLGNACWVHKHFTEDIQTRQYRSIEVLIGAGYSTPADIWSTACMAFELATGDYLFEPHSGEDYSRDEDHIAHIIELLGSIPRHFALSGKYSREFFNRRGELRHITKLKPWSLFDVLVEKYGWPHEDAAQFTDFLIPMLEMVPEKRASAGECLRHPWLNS
Description: Cellular target engagement assay with: SRPK2

Sequence of Fibroblast growth factor receptor 3 (Homo sapiens) (P22607 23-806 limits assumed): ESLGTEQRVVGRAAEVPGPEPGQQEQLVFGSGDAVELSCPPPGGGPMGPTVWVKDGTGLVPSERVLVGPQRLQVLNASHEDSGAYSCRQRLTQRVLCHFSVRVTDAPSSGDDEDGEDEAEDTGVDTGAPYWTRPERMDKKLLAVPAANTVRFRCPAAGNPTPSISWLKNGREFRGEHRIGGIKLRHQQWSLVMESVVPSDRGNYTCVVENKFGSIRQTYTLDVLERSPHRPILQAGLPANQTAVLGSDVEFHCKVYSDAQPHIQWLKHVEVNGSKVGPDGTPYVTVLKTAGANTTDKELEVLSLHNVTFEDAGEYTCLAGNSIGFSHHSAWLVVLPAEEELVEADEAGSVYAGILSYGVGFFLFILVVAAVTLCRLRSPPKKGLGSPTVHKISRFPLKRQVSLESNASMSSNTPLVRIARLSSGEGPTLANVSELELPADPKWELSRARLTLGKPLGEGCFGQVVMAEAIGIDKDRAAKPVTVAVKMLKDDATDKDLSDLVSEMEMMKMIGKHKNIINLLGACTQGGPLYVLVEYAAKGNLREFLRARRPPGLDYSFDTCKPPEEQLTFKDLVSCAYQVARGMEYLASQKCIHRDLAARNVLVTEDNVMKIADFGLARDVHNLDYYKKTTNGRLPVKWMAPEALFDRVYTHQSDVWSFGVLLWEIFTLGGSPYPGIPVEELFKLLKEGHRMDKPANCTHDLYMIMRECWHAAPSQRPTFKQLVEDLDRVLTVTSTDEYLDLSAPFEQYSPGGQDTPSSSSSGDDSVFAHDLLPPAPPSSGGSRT
Sequence of SRSF protein kinase 1 (Homo sapiens) (Q96SB4 whole entry): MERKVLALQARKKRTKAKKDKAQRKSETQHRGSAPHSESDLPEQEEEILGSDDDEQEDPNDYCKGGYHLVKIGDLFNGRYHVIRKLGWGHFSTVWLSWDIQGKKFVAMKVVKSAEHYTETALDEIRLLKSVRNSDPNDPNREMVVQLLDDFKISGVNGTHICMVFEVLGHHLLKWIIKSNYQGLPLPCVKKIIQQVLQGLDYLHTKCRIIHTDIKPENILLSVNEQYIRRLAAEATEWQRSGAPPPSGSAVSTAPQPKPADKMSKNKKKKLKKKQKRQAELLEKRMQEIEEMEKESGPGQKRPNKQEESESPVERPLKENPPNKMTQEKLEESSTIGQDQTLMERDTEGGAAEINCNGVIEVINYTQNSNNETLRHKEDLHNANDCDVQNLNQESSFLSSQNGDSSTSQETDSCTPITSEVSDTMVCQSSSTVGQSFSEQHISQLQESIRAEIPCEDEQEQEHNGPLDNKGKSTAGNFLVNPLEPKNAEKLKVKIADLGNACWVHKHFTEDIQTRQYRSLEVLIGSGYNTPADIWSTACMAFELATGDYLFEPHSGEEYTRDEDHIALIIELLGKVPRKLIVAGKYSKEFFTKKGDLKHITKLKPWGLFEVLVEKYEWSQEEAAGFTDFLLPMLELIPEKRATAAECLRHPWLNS
Sequence of Mitogen-activated protein kinase 14 (Homo sapiens) (Q16539 whole entry): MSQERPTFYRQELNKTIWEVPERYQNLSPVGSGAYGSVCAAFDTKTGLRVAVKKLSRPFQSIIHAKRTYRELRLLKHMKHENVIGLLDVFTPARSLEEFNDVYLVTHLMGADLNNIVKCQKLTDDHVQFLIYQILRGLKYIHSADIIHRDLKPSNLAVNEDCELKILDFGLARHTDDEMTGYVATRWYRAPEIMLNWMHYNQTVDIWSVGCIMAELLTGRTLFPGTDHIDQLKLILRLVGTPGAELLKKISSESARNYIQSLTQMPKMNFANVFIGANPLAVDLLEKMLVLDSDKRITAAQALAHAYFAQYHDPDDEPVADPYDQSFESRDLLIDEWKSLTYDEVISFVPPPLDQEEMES
Sequence of Epithelial discoidin domain-containing receptor 1 (Homo sapiens) (Q08345 whole entry, the tested form may be a part): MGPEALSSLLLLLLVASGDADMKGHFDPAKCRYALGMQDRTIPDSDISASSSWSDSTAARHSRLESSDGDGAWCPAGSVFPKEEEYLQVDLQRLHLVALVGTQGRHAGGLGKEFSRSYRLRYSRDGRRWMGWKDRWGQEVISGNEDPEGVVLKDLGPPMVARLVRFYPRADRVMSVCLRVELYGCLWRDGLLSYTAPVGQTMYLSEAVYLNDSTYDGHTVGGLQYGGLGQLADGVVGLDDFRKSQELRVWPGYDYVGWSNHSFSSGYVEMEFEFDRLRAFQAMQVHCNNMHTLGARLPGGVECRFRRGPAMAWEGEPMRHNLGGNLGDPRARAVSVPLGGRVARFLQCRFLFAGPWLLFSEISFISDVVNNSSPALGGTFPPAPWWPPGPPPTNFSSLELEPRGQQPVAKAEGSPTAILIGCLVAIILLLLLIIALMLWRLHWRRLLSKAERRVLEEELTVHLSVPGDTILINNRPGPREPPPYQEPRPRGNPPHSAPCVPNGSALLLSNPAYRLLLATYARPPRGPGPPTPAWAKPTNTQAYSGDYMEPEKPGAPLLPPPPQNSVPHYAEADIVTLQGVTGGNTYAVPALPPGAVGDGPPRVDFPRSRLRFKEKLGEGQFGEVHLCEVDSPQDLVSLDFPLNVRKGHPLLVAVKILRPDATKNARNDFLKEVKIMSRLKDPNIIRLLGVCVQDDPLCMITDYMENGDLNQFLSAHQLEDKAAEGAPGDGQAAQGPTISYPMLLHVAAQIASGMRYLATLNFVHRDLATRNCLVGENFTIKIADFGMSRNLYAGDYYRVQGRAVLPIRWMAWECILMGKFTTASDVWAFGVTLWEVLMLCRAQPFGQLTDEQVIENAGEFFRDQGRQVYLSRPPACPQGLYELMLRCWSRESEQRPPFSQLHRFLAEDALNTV
Sequence of Mitogen-activated protein kinase 11 (Homo sapiens) (Q15759 whole entry): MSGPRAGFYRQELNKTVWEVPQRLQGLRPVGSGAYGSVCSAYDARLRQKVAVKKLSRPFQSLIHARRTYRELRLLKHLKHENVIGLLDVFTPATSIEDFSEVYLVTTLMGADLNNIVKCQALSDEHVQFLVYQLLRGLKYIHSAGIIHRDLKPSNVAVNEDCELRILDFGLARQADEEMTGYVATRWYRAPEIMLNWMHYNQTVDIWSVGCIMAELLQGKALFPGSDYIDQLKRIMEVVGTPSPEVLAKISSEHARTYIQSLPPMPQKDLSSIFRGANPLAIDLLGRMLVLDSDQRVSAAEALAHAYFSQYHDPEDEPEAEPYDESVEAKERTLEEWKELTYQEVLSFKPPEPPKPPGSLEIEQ

| ΔTm [1] | LogIC50 [2] | LogIC50 [3] | LogIC50 [4] | ΔTm (Peregrin (Homo sapiens) [5]) | LogIC50 [6] | pIC50 [7] | LogIC50 [8] | LogIC50 [9] | ΔTm (Peregrin (Homo sapiens) [10]) | LogIC50 [11] | SMILES |
| --- | --- | --- | --- | --- | --- | --- | --- | --- | --- | --- | --- |
| -0.0946 c | -8 | -7 | -7 | -0.163 c | -8 | – | – | – | – | – | CS(=O)(=O)N1CCCC(NC(=O)[C@H](CCC2CCCCC2)NC(=O)c2ccc(CNC(=O)c3cnc4ccccn34)cc2)C1 (some centres undefined) |
| 0 c | – | – | – | 0 c | – | 7.10 | -7 | – | – | – | O=C(NCCCN1CCOC1=O)c1cnc(NCc2cc(Br)ccc2Br)nc1NC1CCCC1 |
| 0.31 c | – | – | – | – | – | – | – | -7 | -1.19 c | -7 | CN(c1ncccc1CNc1ccnc(-c2nc3c(F)c(Cl)ccc3[nH]2)n1)S(C)(=O)=O |
